In patent US12472168B2, “Ring-fused thiazolino 2-pyridones, methods for preparation thereof and their use in the treatment and/or prevention of a disease involving gram-positive bacteria” (Quretech Bio AB, priority 2017, dated 2025):
≈ marks a conversion by molar mass, not a printed value.

Key:
[1] = test system: MRSA; test: Effect of compound alone on MRSA, CFU counts; assay type: cell-based, Methicillin-resistant Staphylococcus aureus; conditions: compound 25 μM alone, 37° C. 18 h
Description: (§1) The mixture (200 μL) was incubated at 37° C. for 18 h. A control without the test compound was performed in the same way.

[2] = test system: MRSA; test: Minimum Inhibitory Concentration (MIC) and Minimum Bactericidal Concentration (MBC) assays; assay type: cell-based, Methicillin-resistant Staphylococcus aureus; conditions: Staphylococcus aureus, compound alone, no antibiotic; for MIC: 18 h, overnight (18 hrs), read-out: MIC
Description: (§2) MIC was defined by the lowest concentration of the test compound that inhibits visible growth of pathogen of interest. The optical density of the pathogen of interest culture was measured by OD600.
(§3) MBC was determined colony forming units (CFUs) enumeration by serially diluting and plating bacterial cultures on BHI plates.
(§4) Thus, no antibiotic was used in Table 2.

[3] = test system: E. faecalis; test: MIC and MBC assays; assay type: cell-based; conditions: Enterococcus faecalis, compound alone, no antibiotic; for MIC: overnight (18 hrs)
Description: as §2, §3, §4

[4] = test system: Streptococcus; test: MIC and MBC assays; assay type: cell-based; conditions: compound alone, no antibiotic
Description: as §2, §3, §4

[5] = test system: MRSA; test: Effect of combination with Oxacillin on MRSA, CFU counts; assay type: cell-based, Methicillin-resistant Staphylococcus aureus; conditions: compound 25 μM in combination with Oxacillin 9 μM, 37° C. 18 h
Description: as §1

[6] = test system: E. faecalis OG1RF; test: Combination with Vancomycin in vivo, mouse model of CAUTI, OG1RF (vancomycin sensitive); design: species or system Enterococcus faecalis; conditions: C57BL/6Ncr mice
Description: (§5) Mice used in this study were six-week-old female wild-type C57BL/6Ncr mice. Mice were anesthetized by inhalation of isoflurane and implanted with a 5-mm length of platinum-cured silicone catheter. Then, mice were infected immediately following catheter implantation with 50 μl of ˜2×10^7 CFU of E. faecalis OG1RF (FIG. 10A and FIG. 10B) or V583 (FIG. 11A and FIG. 11B) in PBS (1 mL) was introduced in the bladder lumen by transurethral inoculation. […] Mice were sacrificed at 48 hours post-infection by cervical dislocation after anaesthesia inhalation, and the bladders were aseptically harvested. Subsequently, the silicone implant was retrieved from the bladder. Catheters were placed in 1×PBS (1 mL), sonicated for 10 min, to detach E. faecalis and bladders were homogenized in 1×PBS (1 mL). For bacterial enumeration on catheters and bladder, samples were serially diluted and plated on BHI for CFU enumeration.

[7] = test system: E. faecalis OG1RF; test: Stand alone activity in vivo, mouse model of catheter-associated urinary tract infection (CAUTI); design: species or system Enterococcus faecalis; conditions: C57BL/6Ncr mice; 10 mg/kg intraperitoneally 24 hours post-infection; sacrificed 48 hours post-infection; compound alone
Description: as §5, with “OG1RF” for “OG1RF (FIG. 10A and FIG. 10B) or V583 (FIG. 11A and FIG. 11B)”, “mL).” for “mL). For bacterial enumeration on catheters and bladder, samples were serially diluted and plated on BHI for CFU enumeration.”
Mice used in this study were six-week-old female wild-type C57BL/6Ncr mice. Mice were anesthetized by inhalation of isoflurane and implanted with a 5-mm length of platinum-cured silicone catheter.
Mice were sacrificed at 48 hours post-infection by cervical dislocation after anaesthesia inhalation, and the bladders were aseptically harvested. Subsequently, the silicone implant was retrieved from the bladder. Catheters were placed in 1×PBS (1 mL), sonicated for 10 min, to detach E. faecalis and bladders were homogenized in 1×PBS (1 mL). For bacterial enumeration on catheters and bladder, samples were serially diluted and plated on BHI for CFU enumeration.

[8] = test system: E. faecalis OG1RF; test: Combination with Gentamicin in vivo, mouse model of CAUTI, OG1RF; design: species or system Enterococcus faecalis; conditions: C57BL/6Ncr mice
Description: as §5, with “catheter.” for “catheter. Then, mice were infected immediately following catheter implantation with 50 μl of ˜2×10^7 CFU of E. faecalis OG1RF (FIG. 10A and FIG. 10B) or V583 (FIG. 11A and FIG. 11B) in PBS (1 mL) was introduced in the bladder lumen by transurethral inoculation.”

[9] = test system: vancomycin resistant E. faecalis V583; test: Combination with Vancomycin in vivo, mouse model of CAUTI, V583 (vancomycin resistant); design: species or system Enterococcus faecalis; conditions: C57BL/6Ncr mice
Description: as §5

[10] = test system: Vancomycin Resistant Enterococcus (VRE) strain V583; test: Effect of combination of Example 11 and Vancomycin on VRE (V583), CFU counts; assay type: cell-based; conditions: for avg. CFU: VRE V583 OD 0.001, 18 h
Description: The mixture (200 μL) was incubated at 37° C. for 18 h Controls were performed without bacteria-vehicle (DMSO), Vancomycin vehicle (water) and BHI controls that use those as treatment to the inoculum, to ensure no previous bacterial contamination in the reagents. Bacterial CFU were counted as standard methods using serial dilution plated on BHI plates to determine the effect of each treatment.

[11] = test system: E. faecalis OG1RF; test: Effect of combination of Gentamicin and Example 11 on E. faecalis OG1RF in vitro (FIG. 7); assay type: cell-based, Enterococcus faecalis; conditions: agent alone
[12] = 3 mg/kg intraperitoneally 24 hours post-infection, agent alone
[13] = combination of Vancomycin and Example 49, 3 mg/kg intraperitoneally
[14] = 2 mg/kg intraperitoneally 24 hours post-infection, agent alone
[15] = combination of Gentamicin and Example 49, 2 mg/kg intraperitoneally

Compound | CFUs/ml ([1]; MRSA OD 0.001) [CFUs/ml] | CFUs/ml ([1]; MRSA OD 0.1) [CFUs/ml] | CFUs/ml ([1]; MRSA OD 1) [CFUs/ml] | MIC [2] [µM] | MBC [2] [µM] | MBC [3] [µM] | MIC [3] [µM] | MBC [4] [µM] | CFUs/ml ([5]; MRSA OD 0.1) [CFUs/ml] | CFUs/ml ([5]; MRSA OD 1) [CFUs/ml] | reduction of bacterial titers in the bladders [6, 12] | reduction of bacterial titers on the catheters [6, 12] | reduction of bacterial titers in the bladders [8, 14] | reduction of bacterial titers on catheters [8, 14] | reduction of bacterial titers in the bladder [9, 12] | reduction of bacterial titers on the catheter [9, 12] | other results
CCCCCOc1ccc(-c2sc3c(OC)c(Cc4cccc5ccccc45)cc(=O)n3c2C(=O)O)cc1C [Example 8, 5-Methoxy-4-[(1-naphthyl)methyl]-2-oxo-8-[4-(pentyloxy)-3-methyl-phenyl]-7-thia-1-azabicyclo[4.3.0]nona-3,5,8-triene-9-carboxylic acid] | 4.0E+05 | 6.0E+06 | 6.0E+07 | 12 (≈ 6.5 µg/mL) | 13 (≈ 7.04 µg/mL) | 12.5 (≈ 6.77 µg/mL) | 25 (≈ 13.5 µg/mL) | 7 (≈ 3.79 µg/mL) | 1.7E+04 | 1E+06 |  |  |  |  |  |  | 
CCCCOc1ccc(-c2sc3c(OC)c(Cc4cccc5ccccc45)cc(=O)n3c2C(=O)O)cc1C [Example 9, 8-(4-Butoxy-3-methyl-phenyl)-5-methoxy-4-[(1-naphthyl)methyl]-2-oxo-7-thia-1-azabicyclo[4.3.0]nona-3,5,8-triene-9-carboxylic acid] | 8.0E+04 | 4.4E+06 | 5.0E+07 | 17 (≈ 8.97 µg/mL) | 37 (≈ 19.5 µg/mL) | 12.5 (≈ 6.6 µg/mL) | 39 (≈ 20.6 µg/mL) | 8 (≈ 4.22 µg/mL) | 2.6E+04 | 3E+06 |  |  |  |  |  |  | 
CCCCCOc1ccc(-c2sc3c(OC)c(Cc4c5ccccc5cc5ccccc45)cc(=O)n3c2C(=O)O)cc1C [Example 49, 7-(anthracen-9-ylmethyl)-8-methoxy-2-(3-methyl-4-(pentyloxy)phenyl)-5-oxo-thiazolo[3,2-a]pyridine-3-carboxylic acid] |  |  |  |  |  |  |  |  |  |  | about 1 log unit | about 1 log unit | about 0.2 log units | ~0.5 log units | about 0.5 log units | no effect | reduction of bacterial titers in the bladder [6, 13]: about 2 log units; reduction of bacterial titers on the catheters [6, 13]: about 2 log units; reduction of bacterial titers in the bladder [7]: about 1.5 log units; reduction of bacterial titers on the catheters [7]: about 1.5 log units; reduction of bacterial titers in the bladder [8, 15]: about 2 log units; reduction of bacterial titers on catheters [8, 15]: about 1.5 log units; reduction of bacterial titers in the bladder [9, 13]: about 2 log units; reduction of bacterial titers on the catheter [9, 13]: about 1 log unit
CN[C@H](CC(C)C)C(=O)N[C@H]1C(=O)N[C@@H](CC(N)=O)C(=O)N[C@H]2C(=O)N[C@H]3C(=O)N[C@H](C(=O)N[C@H](C(=O)O)c4cc(O)cc(O)c4-c4cc3ccc4O)[C@H](O)c3ccc(c(Cl)c3)Oc3cc2cc(c3O[C@@H]2O[C@H](CO)[C@@H](O)[C@H](O)[C@H]2O[C@H]2C[C@](C)(N)[C@H](O)[C@H](C)O2)Oc2ccc(cc2Cl)[C@H]1O [Vancomycin, vancomycin] |  |  |  |  |  |  |  |  |  |  | did not result in reduction | did not result in reduction |  |  | 0.3 log units | no effect | avg. CFU ([10]; Experiment 1, Vancomycin 1 μg/ml alone (Control)): 1.20E+09 CFU; avg. CFU ([10]; Experiment 1, Vancomycin 2 μg/ml alone (Control)): 1.35E+09 CFU; avg. CFU ([10]; Experiment 1, Vancomycin 4 μg/ml alone (Control)): 5.00E+08 CFU; avg. CFU ([10]; Experiment 1, Vancomycin 8 μg/ml alone (Control)): 4.00E+08 CFU; avg. CFU ([10]; Experiment 1, Vancomycin 16 μg/ml alone (Control)): 3.00E+08 CFU; avg. CFU ([10]; Experiment 1, Vancomycin 32 μg/ml alone (Control)): 5.50E+08 CFU; avg. CFU ([10]; Experiment 1, Vancomycin 64 μg/ml alone (Control)): 4.00E+07 CFU; avg. CFU ([10]; Experiment 2, Vancomycin 1 μg/ml alone (Control)): 1.70E+09 CFU; avg. CFU ([10]; Experiment 2, Vancomycin 2 μg/ml alone (Control)): 1.40E+09 CFU; avg. CFU ([10]; Experiment 2, Vancomycin 4 μg/ml alone (Control)): 8.50E+08 CFU; avg. CFU ([10]; Experiment 2, Vancomycin 8 μg/ml alone (Control)): 8.50E+08 CFU; avg. CFU ([10]; Experiment 2, Vancomycin 16 μg/ml alone (Control)): 4.50E+08 CFU; avg. CFU ([10]; Experiment 2, Vancomycin 32 μg/ml alone (Control)): 1.95E+06 CFU; avg. CFU ([10]; Experiment 2, Vancomycin 64 μg/ml alone (Control)): 6.00E+04 CFU; effect on the bacterial growth ([10]; Vancomycin alone at a concentration below 64 μg/ml, VRE V583): no or no substantial effect
gentamicin [reference compound] |  |  |  |  |  |  |  |  |  |  |  |  | did not result in reduction | did not result in reduction |  |  | number of observed bacterial CFUs/ml [11]: did not result in a decrease
